Patent publication US20220204439A1, “LIPIDS AND LIPID NANOPARTICLE FORMULATIONS FOR DELIVERY OF NUCLEIC ACIDS” (Acuitas Therapeutics, Inc., priority 2015, published 2022)

Assays:
[1] = tested on: luciferase expression in the liver; assay: In vivo luciferase mRNA expression in mouse liver with lipid nanoparticle formulations; set-up: species or system C57BL/6 mice; conditions: tail vein injection, liver 4 hours after administration, FLuc mRNA; for Liver Luc @ 0.3 mg/kg dose / Liver Luc @ 0.3 mg/kg (ng luc/g liver): 0.3 mg mRNA/kg; for Liver Luc @ 0.3 mg/kg dose / Liver Luc @ 1.0 mg/kg dose: LNP 50% cationic lipid/10% DSPC/38.5% cholesterol/1.5% PEG-DMG; for Liver Luc @ 1.0 mg/kg dose / Liver Luc @ 1.0 mg/kg (ng luc/g liver): 1.0 mg mRNA/kg; for Liver Luc @ 0.3 mg/kg (ng luc/g liver) / Liver Luc @ 1.0 mg/kg (ng luc/g liver): LNP 50% cationic lipid/10% DSPC/38.5% cholesterol/1.5% PEG-DMA
Experimental: Cationic lipid (MC3), DSPC, cholesterol and PEG-lipid were solubilized in ethanol at a molar ratio of 50:10:38.5:1.5. Lipid nanoparticles (LNP) were prepared at a total lipid to mRNA weight ratio of approximately 10:1 to 30:1. Briefly, the mRNA was diluted to 0.2 mg/mL in 10 to 50 mM citrate buffer, pH 4. Syringe pumps were used to mix the ethanolic lipid solution with the mRNA aqueous solution at a ratio of about 1:5 to 1:3 (vol/vol) with total flow rates above 15 ml/min. The ethanol was then removed and the external buffer replaced with PBS by dialysis. Finally, the lipid nanoparticles were filtered through a 0.2 μm pore sterile filter. Lipid nanoparticle particle size was 70-90 nm diameter as determined by quasi-elastic light scattering using a Nicomp 370 submicron particle sizer (Santa Barbara, Calif.).
Studies were performed in 6-8 week old female C57BL/6 mice (Charles River) according to guidelines established by an institutional animal care committee (ACC) and the Canadian Council on Animal Care (CCAC). Varying doses of mRNA-lipid nanoparticle were systemically administered by tail vein injection and animals euthanized at specific time points (1, 2, 4, 8 and 24 hrs) post-administration. Liver and spleen were collected in pre-weighted tubes, weights determined, immediately snap frozen in liquid nitrogen and stored at −80° C. until processing for analysis.
For liver, approximately 50 mg was dissected for analyses in a 2 mL FastPrep tubes (MP Biomedicals, Solon Ohio). ¼″ ceramic sphere (MP Biomedicals) was added to each tube and 500 μL of Glo Lysis Buffer—GLB (Promega, Madison Wis.) equilibrated to room temperature was added to liver tissue. Liver tissues were homogenized with the FastPrep24 instrument (MP Biomedicals) at 2×6.0 m/s for 15 seconds. Homogenate was incubated at room temperature for 5 minutes prior to a 1:4 dilution in GLB and assessed using SteadyGlo Luciferase assay system (Promega). Specifically, 50 μL of diluted tissue homogenate was reacted with 50 μL of SteadyGlo substrate, shaken for 10 seconds followed by 5 minute incubation and then quantitated using a CentroXS^3 LB 960 luminometer (Berthold Technologies, Germany). The amount of protein assayed was determined by using the BCA protein assay kit (Pierce, Rockford Ill.). Relative luminescence units (RLU) were then normalized to total ug protein assayed. To convert RLU to ng luciferase a standard curve was generated with QuantiLum Recombinant Luciferase (Promega). Based in the data provided in FIG. 1, the four-hour time point was chosen for efficacy evaluation of the lipid formulations (see Example 29).
The FLuc mRNA (L-6107) from Trilink Biotechnologies will express a luciferase protein, originally isolated from the firefly, Photinus pyralis. FLuc is commonly used in mammalian cell culture to measure both gene expression and cell viability. It emits bioluminescence in the presence of the substrate, luciferin. This capped and polyadenylated mRNA is fully substituted with 5-methylcytidine and pseudouridine.
The cationic lipids shown in Table 2 have previously been tested with nucleic acids. For comparative purposes, these lipids were also used to formulate lipid nanoparticles containing the FLuc mRNA (L-6107) using an in line mixing method, as described in example 28 and in PCT/US10/22614, which is hereby incorporated by reference in its entirety. […] Relative activity was determined by measuring luciferase expression in the liver 4 hours following administration via tail vein injection as described in example 28. The activity was compared at a dose of 0.3 and 1.0 mg mRNA/kg and expressed as ng luciferase/g liver measured 4 hours after administration, as described in Example 28. […]

[2] = pKa of formulated cationic lipids in lipid nanoparticles (TNS fluorescence assay); assay type: physicochemical; conditions: probe 2-(p-toluidino)-6-napthalene sulfonic acid (TNS), 1 µM final; formulated in LNP cationic lipid/DSPC/cholesterol/PEG-lipid 50/10/38.5/1.5 mol %; pH of half-maximal TNS fluorescence
Experimental: As described elsewhere, the pKa of formulated cationic lipids is correlated with the effectiveness of LNPs for delivery of nucleic acids (see Jayaraman et al, Angewandte Chemie, International Edition (2012), 51(34), 8529-8533; Semple et al, Nature Biotechnology 28, 172-176 (2010)). The preferred range of pKa is ˜5 to ˜7. […] Lipid nanoparticles comprising of cationic lipid/DSPC/cholesterol/PEG-lipid (50/10/38.5/1.5 mol %) in PBS at a concentration of 0.4 mM total lipid are prepared using the in-line process as described in Example 28. TNS was prepared as a 100 μM stock solution in distilled water. Vesicles were diluted to 24 μM lipid in 2 mL of buffered solutions containing, 10 mM HEPES, 10 mM MES, 10 mM ammonium acetate, 130 mM NaCl, where the pH ranged from 2.5 to 11. An aliquot of the TNS solution was added to give a final concentration of 1 μM and following vortex mixing fluorescence intensity was measured at room temperature in a SLM Aminco Series 2 Luminescence Spectrophotometer using excitation and emission wavelengths of 321 nm and 445 nm. A sigmoidal best fit analysis was applied to the fluorescence data and the pKa was measured as the pH giving rise to half-maximal fluorescence intensity (see FIG. 2).

Row | Compound | Liver Luc @ 0.3 mg/kg dose [1] | Liver Luc @ 1.0 mg/kg dose [1] | pKa [2] | Liver Luc @ 0.3 mg/kg (ng luc/g liver) [1] | Liver Luc @ 1.0 mg/kg (ng luc/g liver) [1]
1 | CCCCCC/C=C\C/C=C\COC(=O)CCCCCCCC(CCCCCCCC(=O)OC/C=C\CCCCCC)OC(=O)CCCN(C)C (centres unmarked) [319 (2% PEG), reference compound] | 258 ± 67 ng luciferase/g liver | 681 ± 203 ng luciferase/g liver |  |  | 
2 | CCCCC/C=C\C/C=C\CCCCCCCCC(CCCCCCCC/C=C\C/C=C\CCCCC)NCCCN(C)C [A, reference compound] |  |  | 7.05 |  | 
3 | CCCCC/C=C\C/C=C\CCCCCCCCC(CCCCCCCC/C=C\C/C=C\CCCCC)N(C)CCN(C)C [B, reference compound] |  |  | 6.17 | 95 ± 41 ng luc/g liver | 1131 ± 384 ng luc/g liver
4 | CCCCC/C=C\C/C=C\CCCCCCCCC(CCCCCCCC/C=C\C/C=C\CCCCC)N(CC)CCCN(C)C [C, reference compound] |  |  | 6.36 | 24 ± 4 ng luc/g liver | 77 ± 19 ng luc/g liver
5 | CCCCC/C=C\C/C=C\CCCCCCCCC(CCCCCCCC/C=C\C/C=C\CCCCC)N(CCCCCCCCC)CCCN(C)C [Compound 1] |  |  | 5.64 | 54 ± 8 ng luc/g liver | 226 ± 20 ng luc/g liver
6 | CCCCC/C=C\C/C=C\CCCCCCCCC(CCCCCCCC/C=C\C/C=C\CCCCC)N(CCCN(C)C)C(=O)CCCCCCCC [Compound 5] |  |  | 6.27 | 603 ± 167 ng luc/g liver | 3640 ± 601 ng luc/g liver
7 | CCCCC/C=C\C/C=C\CCCCCCCCC(CCCCCCCC/C=C\C/C=C\CCCCC)N(CCCN(C)C)C(=O)CCCCCCC/C=C\C/C=C\CCCCC [Compound 6] |  |  | 6.14 | 19 ± 4 ng luc/g liver | 211 ± 119 ng luc/g liver
8 | CCCCC/C=C\C/C=C\CCCCCCCCC(CCCCCCCC/C=C\C/C=C\CCCCC)N(CCCN(C)C)C(=O)C(CC)CCCCC (centres unmarked) [Compound 7] |  |  | 5.93 | 833 ± 401 ng luc/g liver | 8859 ± 780 ng luc/g liver
9 | CCCCC/C=C\C/C=C\CCCCCCCCC(CCCCCCCC/C=C\C/C=C\CCCCC)N(CCCN(C)C)C(=O)C(CCCCCC)CCCCCCCC (centres unmarked) [Compound 8] |  |  | 5.35 | 105 ± 98 ng luc/g liver | 1238 ± 153 ng luc/g liver
10 | CCCCCCCCC(=O)N(CCCN(C)C)C(CCCCCCCCC(=O)OCC(CCCC)CCCCCC)CCCCCCCCC(=O)OCC(CCCC)CCCCCC (centres unmarked) [Compound 9] |  |  | 6.27 | 2381 ± 1162 ng luc/g liver | 17157 ± 2470 ng luc/g liver
11 | CCCCCCCC(=O)N(CCCN(C)C)C(CCCCCCCCC(=O)OC(CCCCCC)CCCCCC)CCCCCCCCC(=O)OC(CCCCCC)CCCCCC [Compound 10] |  |  | 6.16 | 2379 ± 93 ng luc/g liver | 26181 ± 2900 ng luc/g liver
12 | CCCCCCCCC(=O)N(CCCN(C)C)C(CCCCCCCCC(=O)OC(CCCCCC)CCCCCC)CCCCCCCCC(=O)OC(CCCCCC)CCCCCC [Compound 11] |  |  | 6.13 | 2273 ± 294 ng luc/g liver | 16502 ± 4301 ng luc/g liver
13 | CCCCCCCCC(CCCCCC)COC(=O)CCCCCCCCC(CCCCCCCCC(=O)OCC(CCCCCC)CCCCCCCC)N(CCCN(C)C)C(=O)CCCCCCC (centres unmarked) [Compound 12] |  |  | 6.21 | 3336 ± 1394 ng luc/g liver | 13577 ± 1948 ng luc/g liver
14 | CCCCCCCCC(=O)N(CCCN(C)C)C(CCCCCCCCC(=O)OCC(CCCCCC)CCCCCCCC)CCCCCCCCC(=O)OCC(CCCCCC)CCCCCCCC (centres unmarked) [Compound 13] |  |  | 6.22 | 1537 ± 777 ng luc/g liver | 10907 ± 2032 ng luc/g liver
15 | CCCCCCCC(=O)N(CCCN1CCCC1)C(CCCCCCCCC(=O)OCC(CCCC)CCCCCC)CCCCCCCCC(=O)OCC(CCCC)CCCCCC (centres unmarked) [Compound 14] |  |  | 6.33 | 2851 ± 438 ng luc/g liver | 15445 ± 3693 ng luc/g liver
16 | CCCCCCCCC(=O)N(CCCN1CCCC1)C(CCCCCCCCC(=O)OCC(CCCC)CCCCCC)CCCCCCCCC(=O)OCC(CCCC)CCCCCC (centres unmarked) [Compound 15] |  |  | 6.32 | 2708 ± 924 ng luc/g liver | 15930 ± 4711 ng luc/g liver
17 | CCCCC/C=C\C/C=C\CCCCCCCCC(CCCCCCCC/C=C\C/C=C\CCCCC)C(=O)N(CCCCCCCCC)CCCN(C)C [Compound 16] |  |  | 6.37 | 231 ± 100 ng luc/g liver | 1185 ± 838 ng luc/g liver
18 | CCCCC/C=C\C/C=C\CCCCCCCCC(CCCCCCCC/C=C\C/C=C\CCCCC)N(CCCN(C)C)C(=O)CCCCCCCC(=O)OCC [Compound 37] |  |  | 5.61 |  | 
19 | CCCCCCCCCCC(CCCCCCCC)COC(=O)CCCCCC(CCCCCC(=O)OCC(CCCCCCCC)CCCCCCCCCC)N(CCCN(C)C)C(=O)CCCCCCCC (centres unmarked) [Compound 41] |  |  |  | 832 ± 298 ng luc/g liver | 7437 ± 1612 ng luc/g liver
20 | CCCCC(CC)C(=O)OCCCCCCCCCC(CCCCCCCCCOC(=O)C(CC)CCCC)OC(=O)CCCN(C)C (centres unmarked) [Compound 137, reference compound] | 281 ± 203 ng luciferase/g liver | 588 ± 303 ng luciferase/g liver |  |  | 
21 | CCCCC/C=C\C/C=C\CCCCCCCCOCC(CN(C)C)OCCCCCCCC/C=C\C/C=C\CCCCC (centres unmarked) [DLinDMA, reference compound] | 13 ± 3 ng luciferase/g liver | 67 ± 20 ng luciferase/g liver |  |  | 
22 | CCCCC/C=C\C/C=C\CCCCCCCCC(CCCCCCCC/C=C\C/C=C\CCCCC)OC(=O)CCN(C)C [MC2, reference compound] | 4 ± 1 ng luciferase/g liver |  |  |  | 
23 | CCCCC/C=C\C/C=C\CCCCCCCCC(CCCCCCCC/C=C\C/C=C\CCCCC)OC(=O)CCCCN(C)C [MC4, reference compound] | 41 ± 10 ng luciferase/g liver |  |  |  | 
24 | CCCCC/C=C\C/C=C\CCCCCCCCC1(CCCCCCCC/C=C\C/C=C\CCCCC)OC[C@@H](CCN(C)C)O1 [XTC2, reference compound] | 80 ± 28 ng luciferase/g liver | 237 ± 99 ng luciferase/g liver |  |  | 
